Measurements published in patent publication US11413278B2, “Compounds and methods for promoting stress resistance” (priority 2015, dated 2022).
“Also recorded” adds a separate entry of the source. Like-named read-outs stand apart in the source and are kept apart here.

What was measured:
Format in all cases: cell-based, human
FOXO3 = assay: qPCR analysis of FOXO3-regulated genes; conditions: for K = Sestrin induction: score; for fold induction at 10 µM: Homo sapiens
In short: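 FOXO3 target-gene expression quantified by qPCR normalised to B2M, PPIA and GAPDH, in WI-38 cells after 24 h exposure to 10 μM compound. Some runs used cells first transfected 36 h with 10 nM FOXO3 or NRF2 siRNA and replated ~24 h before dosing.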

NRF2 = assay: qPCR analysis of NRF2-regulated genes; conditions: for fold induction at 10 µM: Homo sapiens
In short: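 Expression of HMOX1, NQO1, GCLC and GSTM1 measured by qPCR relative to B2M, PPIA and GAPDH. Cells were WI-38 fibroblasts exposed 24 hrs to 10 μM compound, with RNA and cDNA prepared via Cells-to-Ct. Where stated, cells were first transfected 36 hrs with FOXO3 or NRF2 siRNA at 10 nM.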

mTOR = mTOR inhibition (RPS6 phosphorylation status), In-Cell Western
In short: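 Read-out is In-Cell Western near-infrared imaging of phospho-RPS6 (Ser-235/236) against total RPS6, using overnight 4° C primary staining and DyLight 680/800 secondaries. Compounds were given to WI-38 cells for 24 hrs at three doses: 5, 10 and 20 μM.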

[1] = 24 h, Assay 10(m), at 10 uM, qPCR, read-out: Induction of FOXO3-regulated genes: GADD45A normalized fold-change
[2] = 10 μM, 24 hrs, WI-38 cells, qPCR, normalized to B2M, n = 4, read-out: GADD45A expression, normalized fold change (FOXO3-regulated gene)
[3] = WI-38 cells, 10 μM, 24 hrs, n=4, qPCR normalized by B2M, read-out: DDB1 Normalized fold change
[4] = WI-38 cells, 10 μM, 24 hrs, n=4, qPCR normalized by B2M, read-out: GADD45A Normalized fold change
[5] = WI-38 cells, 10 μM, 24 hrs, n=4, qPCR normalized by B2M, read-out: SESN1 Normalized fold change
[6] = fold change, qPCR, WI-38 cells, 10 μM, 24 hrs, read-out: Summary of effects on FOXO3-regulated genes: GADD45A
[7] = qPCR, WI-38 cells, 10 μM, n=4, 24 hrs, normalized by B2M, read-out: CAT Normalized fold change
[8] = qPCR, WI-38 cells, 10 μM, n=4, 24 hrs, normalized by B2M, read-out: SOD2 Normalized fold change
[9] = qPCR, WI-38 cells, 10 μM, n=4, 24 hrs, normalized by B2M, read-out: TXNIP Normalized fold change
[10] = 24 h, Assay 12(o), at 10 uM, qPCR, read-out: Induction of NRF2-regulated genes: GCLC normalized fold-change
[11] = 24 h, Assay 12(o), at 10 uM, qPCR, read-out: Induction of NRF2-regulated genes: NQO1 normalized fold-change
[12] = rounded fold change, WI-38 cells, 10 μM, 24 hrs (RP29 for Gr-4D), read-out: Summary of effects on NRF2-regulated genes: NQO1
[13] = rounded fold change, WI-38 cells, 10 μM, 24 hrs, read-out: Summary of effects on NRF2-regulated genes: GCLC
[14] = 10 μM, 24 hrs, WI-38 cells, qPCR, normalized to B2M, n = 4, read-out: GCLC expression, normalized fold change (NRF2-regulated gene)
[15] = 10 μM, 24 hrs, WI-38 cells, qPCR, normalized to B2M, n = 4, read-out: NQO1 expression, normalized fold change (NRF2-regulated gene)
[16] = WI-38 cells, 10 μM, 24 hrs, n=4, qPCR normalized by B2M, read-out: GCLC Normalized fold change
[17] = WI-38 cells, 10 μM, 24 hrs, n=4, qPCR normalized by B2M, read-out: GSTM1 Normalized fold change
[18] = WI-38 cells, 10 μM, 24 hrs, n=4, qPCR normalized by B2M, read-out: HMOX1 Normalized fold change
[19] = WI-38 cells, 10 μM, 24 hrs, n=4, qPCR normalized by B2M, read-out: NQO1 Normalized fold change

Oc1ccccc1-c1noc(-c2ccccc2O)n1 [O27]
E = Potential FOXO3 Activation (FOXO3; 2-point score): 0 | K = Sestrin induction (FOXO3): 1 | E = Potential FOXO3 Activation (FOXO3; summary score): 0 | F = Potential NRF2 Activation (NRF2; 2-point score): 0 | F = Potential NRF2 Activation (NRF2; summary score): 0 | mTOR inhibition (p-RPS6/RPS6), qualitative (mTOR): consistently reduced the ratios | G = mTOR down-regulation (mTOR; 2-point score): 2 | mTOR down-regulation by p-RPS6 assays (mTOR; Assay 14(q), at 5 uM, 10 uM & 20 uM): YES | G = mTOR down-regulation (mTOR; summary score): 2

[O-][n+]1onc2c3nsnc3c(Br)cc21 [O17]
E = Potential FOXO3 Activation (FOXO3; 2-point score): 0 | fold induction at 10 µM (FOXO3; [1]): 0.85 | fold induction at 10 µM (FOXO3; [2]): 0.85 | fold induction at 10 µM (FOXO3; [3]): 1.04 | fold induction at 10 µM (FOXO3; [4]): 0.846 | fold induction at 10 µM (FOXO3; [5]): 1.11 | fold induction at 10 µM (FOXO3; [6]): 0.85 | fold induction at 10 µM (FOXO3; [7]): 1.11 | fold induction at 10 µM (FOXO3; [8]): 0.997 | fold induction at 10 µM (FOXO3; [9]): 0.801 | K = Sestrin induction (FOXO3): 0 | E = Potential FOXO3 Activation (FOXO3; summary score): 0 | Induction of at least two NRF2-regulated genes (HMOX1, NQO1, GCLC, GSTM1) (NRF2; 10 μM, 24 hrs, WI-38): could induce expression of at least two genes | F = Potential NRF2 Activation (NRF2; 2-point score): 0 | fold induction at 10 µM (NRF2; [10]): 1.36 | fold induction at 10 µM (NRF2; [11]): 1.47 | fold induction at 10 µM (NRF2; [12]): 1.47 | fold induction at 10 µM (NRF2; [13]): 1.36 | fold induction at 10 µM (NRF2; [14]): 1.36 | fold induction at 10 µM (NRF2; [15]): 1.47 | fold induction at 10 µM (NRF2; [16]): 1.35 | fold induction at 10 µM (NRF2; [17]): 1.12 | fold induction at 10 µM (NRF2; [18]): 1.08 | fold induction at 10 µM (NRF2; [19]): 1.47 | F = Potential NRF2 Activation (NRF2; summary score): 0 | G = mTOR down-regulation (mTOR; 2-point score): 0 | G = mTOR down-regulation (mTOR; summary score): 0

O=C(c1ccc([N+](=O)[O-])o1)N1CCc2ccccc21 [O13]
Induction of at least two of five FOXO3-regulated genes (SOD2, GADD45A, CAT, DDB1, TXNIP) (FOXO3; 10 μM, 24 hrs, WI-38): significant induction; also recorded: significant, induction | E = Potential FOXO3 Activation (FOXO3; 2-point score): 0 | fold induction at 10 µM (FOXO3; 24 h, Assay 10(m), at 10 uM, qPCR, read-out: Induction of FOXO3-regulated genes: CAT normalized fold-change): 1.33 | fold induction at 10 µM (FOXO3; 24 h, Assay 10(m), at 10 uM, qPCR, read-out: Induction of FOXO3-regulated genes: DDB1 normalized fold-change): 1.27 | fold induction at 10 µM (FOXO3; [1]): 1.2 | fold induction at 10 µM (FOXO3; 10 μM, 24 hrs, WI-38 cells, qPCR, normalized to B2M, n = 4, read-out: CAT expression, normalized fold change (FOXO3-regulated gene)): 1.33 | fold induction at 10 µM (FOXO3; 10 μM, 24 hrs, WI-38 cells, qPCR, normalized to B2M, n = 4, read-out: DDB1 expression, normalized fold change (FOXO3-regulated gene)): 1.27 | fold induction at 10 µM (FOXO3; [2]): 1.2 | fold induction at 10 µM (FOXO3; [3]): 1.27 | fold induction at 10 µM (FOXO3; [4]): 1.2 | fold induction at 10 µM (FOXO3; [5]): 1.23 | fold induction at 10 µM (FOXO3; fold change, qPCR, WI-38 cells, 10 μM, 24 hrs, read-out: Summary of effects on FOXO3-regulated genes: CAT): 1.33 | fold induction at 10 µM (FOXO3; fold change, qPCR, WI-38 cells, 10 μM, 24 hrs, read-out: Summary of effects on FOXO3-regulated genes: DDB1): 1.27 | fold induction at 10 µM (FOXO3; [6]): 1.2 | fold induction at 10 µM (FOXO3; [7]): 1.32 | fold induction at 10 µM (FOXO3; [8]): 1.09 | fold induction at 10 µM (FOXO3; [9]): 0.907 | K = Sestrin induction (FOXO3): 0 | E = Potential FOXO3 Activation (FOXO3; summary score): 0 | F = Potential NRF2 Activation (NRF2; 2-point score): 2 | Potential NRF2 Activation (>=2 target genes induced, by >=1.5-fold) (NRF2; Assay 13(p)): YES | fold induction at 10 µM (NRF2; [10]): 1.99 | fold induction at 10 µM (NRF2; 24 h, Assay 12(o), at 10 uM, qPCR, read-out: Induction of NRF2-regulated genes: GSTM1 normalized fold-change): 1.31 | fold induction at 10 µM (NRF2; 24 h, Assay 12(o), at 10 uM, qPCR, read-out: Induction of NRF2-regulated genes: HMOX1 normalized fold-change): 5.52 | fold induction at 10 µM (NRF2; [11]): 2.95 | fold induction at 10 µM (NRF2; rounded fold change, WI-38 cells, 10 μM, 24 hrs (RP11 for Gr-1D, RP29 for Gr-4D), read-out: Summary of effects on NRF2-regulated genes: HMOX1): 5.52 | fold induction at 10 µM (NRF2; rounded fold change, WI-38 cells, 10 μM, 24 hrs (RP29 for Gr-4D), read-out: Summary of effects on NRF2-regulated genes: GSTM1): 1.31 | fold induction at 10 µM (NRF2; [12]): 2.95 | fold induction at 10 µM (NRF2; [13]): 1.99 | fold induction at 10 µM (NRF2; 10 μM, 24 hrs, WI-38, read-out: Expression of at least two NRF2 target genes): > 1.5 | fold induction at 10 µM (NRF2; [14]): 1.99 | fold induction at 10 µM (NRF2; 10 μM, 24 hrs, WI-38 cells, qPCR, normalized to B2M, n = 4, read-out: GSTM1 expression, normalized fold change (NRF2-regulated gene)): 1.31 | fold induction at 10 µM (NRF2; 10 μM, 24 hrs, WI-38 cells, qPCR, normalized to B2M, n = 4, read-out: HMOX1 expression, normalized fold change (NRF2-regulated gene)): 5.52 | fold induction at 10 µM (NRF2; [15]): 2.95 | fold induction at 10 µM (NRF2; [16]): 1.99 | fold induction at 10 µM (NRF2; [17]): 1.31 | fold induction at 10 µM (NRF2; [18]): 5.52 | fold induction at 10 µM (NRF2; [19]): 2.95 | F = Potential NRF2 Activation (NRF2; summary score): 2 | G = mTOR down-regulation (mTOR; 2-point score): 0 | G = mTOR down-regulation (mTOR; summary score): 0
